Laboratory results reported in the supplement of paper PMC11451515.

Assays:
Settings in all cases: 48 h
NOMO1 [1] = experiment: AUC of viability dose-response curve (% viability x log10 dose units); higher = less sensitive
Outline: (§1)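 Viability of medium-adapted leukemia cells was measured by CellTiter-Glo One luminescence after 48 h at 37°C with library compounds in DMSO. Doses were 11 threefold steps from 47 μM to 0.79 nM, in 1536-well plates at 500 or 1000 cells/well. Signals were normalised per plate to DMSO and cell-free wells and fitted with a four-parameter log-logistic model on log10 dose. Area under the curve was integrated by trapezoidal rule, with curves exceeding full viability scaled and failed quality-control curves removed.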

P12-Ichikawa = experiment: as above
Outline: as §1

SEM cells [2] = experiment: as above
Outline: as §1

NOMO1 [3] = experiment: cell viability relative to DMSO control; higher = less cytotoxic
Outline: (§2)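 NOMO1 or SEM cells were plated at 500 cells/well and P12-Ichikawa cells at 1000 cells/well in 1536-well plates (5 μl), after each leukemia line had been adapted for at least four passages in each medium. Pin dosing delivered library compounds in DMSO at 11 threefold concentrations, 47 μM to 0.79 nM. CellTiter-Glo One luminescence was read after 48 h at 37°C. Viability is reported as a per-plate percentage of DMSO wells, with cell-free wells as background.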

SEM cells [4] = experiment: as above
Outline: as §2

CNC(=O)c1ccccc1Nc1nc(Nc2ccc(N3CCOCC3)cc2OC)ncc1Cl
AUC of viability dose-response curve
Settings	NOMO1 [1]	P12-Ichikawa	SEM cells [2]
HPLM + 10% dialyzed FBS	387	408	349
RPMI 5 mM glucose + 10% FBS	397	404	332
RPMI 5 mM glucose + 10% dialyzed FBS	377	416	337

C1Cc2[nH]nc(-c3nn[nH]n3)c2C1
cell viability [%]
Settings	HPLM + 10% dialyzed FBS	RPMI 5 mM glucose + 10% FBS	RPMI 5 mM glucose + 10% dialyzed FBS
NOMO1 [3], 0.000781 µM	128	–	122
NOMO1 [3], 0.00234 µM	120	–	124
NOMO1 [3], 0.00702 µM	119	–	131
NOMO1 [3], 0.0211 µM	139	–	139
NOMO1 [3], 0.0632 µM	149	–	135
NOMO1 [3], 0.19 µM	145	–	144
NOMO1 [3], 0.569 µM	131	–	137
NOMO1 [3], 1.71 µM	143	–	147
NOMO1 [3], 5.12 µM	140	–	131
NOMO1 [3], 15.4 µM	145	–	145
NOMO1 [3], 46.1 µM	142	–	149
SEM cells [4], 0.000781 µM	91.4	112	115
SEM cells [4], 0.00234 µM	101	122	129
SEM cells [4], 0.00702 µM	113	119	125
SEM cells [4], 0.0211 µM	114	128	127
SEM cells [4], 0.0632 µM	107	125	141
SEM cells [4], 0.19 µM	104	137	162
SEM cells [4], 0.569 µM	128	129	145
SEM cells [4], 1.71 µM	128	163	141
SEM cells [4], 5.12 µM	120	136	149
SEM cells [4], 15.4 µM	116	145	144
SEM cells [4], 46.1 µM	100	140	162

AUC of viability dose-response curve
Settings	NOMO1 [1]	P12-Ichikawa	SEM cells [2]
HPLM + 10% dialyzed FBS	460	470	464
RPMI 5 mM glucose + 10% FBS	460	458	438
RPMI 5 mM glucose + 10% dialyzed FBS	456	472	445

O=C([O-])Cc1ccccc1Nc1c(Cl)cccc1Cl
cell viability [%], SEM cells [4]
Settings	HPLM + 10% dialyzed FBS	RPMI 5 mM glucose + 10% FBS
0.000781 µM	109	126
0.00234 µM	121	113
0.00702 µM	110	113
0.0211 µM	125	109
0.0632 µM	126	123
0.19 µM	129	112
0.569 µM	117	111
1.71 µM	122	111
5.12 µM	75.7	69.1
15.4 µM	112	108
46.1 µM	65.9	49

AUC of viability dose-response curve
Settings	NOMO1 [1]	P12-Ichikawa	SEM cells [2]
HPLM + 10% dialyzed FBS	454	447	442
RPMI 5 mM glucose + 10% FBS	455	445	429
RPMI 5 mM glucose + 10% dialyzed FBS	458	447	430

C[C@H]1O[C@H](O[C@H]2[C@H](O)[C@@H](O)[C@H](O[C@@H]2CO)O[C@H]3[C@H](O)[C@@H](O)C(O)O[C@@H]3CO)[C@H](O)[C@@H](O)[C@@H]1N[C@H]4\C=C(CO)/[C@@H](O)[C@H](O)[C@H]4O (some centres undefined)
AUC of viability dose-response curve
Settings	NOMO1 [1]	P12-Ichikawa	SEM cells [2]
HPLM + 10% dialyzed FBS	330	321	437
RPMI 5 mM glucose + 10% FBS	309	335	456
RPMI 5 mM glucose + 10% dialyzed FBS	319	374	432

COc1ccc(CCN2CCN(CCCc3ccccc3)CC2)cc1OC
cell viability [%], SEM cells [4]
Settings	HPLM + 10% dialyzed FBS	RPMI 5 mM glucose + 10% FBS	RPMI 5 mM glucose + 10% dialyzed FBS
0.000781 µM	100	108	115
0.00234 µM	115	125	113
0.00702 µM	117	112	132
0.0211 µM	133	124	134
0.0632 µM	133	133	141
0.19 µM	138	132	162
0.569 µM	134	127	150
1.71 µM	126	129	148
5.12 µM	125	133	141
15.4 µM	127	125	139
46.1 µM	127	109	122

AUC of viability dose-response curve
Settings	NOMO1 [1]	P12-Ichikawa	SEM cells [2]
HPLM + 10% dialyzed FBS	459	466	461
RPMI 5 mM glucose + 10% FBS	444	472	465
RPMI 5 mM glucose + 10% dialyzed FBS	439	473	457

Cn1c2ccccc2c2c3c(c4c5ccccc5n(CCC#N)c4c21)CNC3=O
cell viability [%], SEM cells [4]
Settings	HPLM + 10% dialyzed FBS	RPMI 5 mM glucose + 10% dialyzed FBS
0.000781 µM	109	123
0.00234 µM	118	103
0.00702 µM	142	159
0.0211 µM	119	130
0.0632 µM	111	124
0.19 µM	98.1	107
0.569 µM	55	52.7
1.71 µM	41	39.4
5.12 µM	25.7	19
15.4 µM	18.8	18.5
46.1 µM	17.6	11.2

AUC of viability dose-response curve
Settings	NOMO1 [1]	P12-Ichikawa	SEM cells [2]
HPLM + 10% dialyzed FBS	362	393	305
RPMI 5 mM glucose + 10% FBS	376	363	308
RPMI 5 mM glucose + 10% dialyzed FBS	367	367	300

O=C(NOC[C@H](O)CO)c1ccc(F)c(F)c1Nc1ccc(I)cc1F
AUC of viability dose-response curve
Settings	NOMO1 [1]	P12-Ichikawa	SEM cells [2]
HPLM + 10% dialyzed FBS	261	434	354
RPMI 5 mM glucose + 10% FBS	274	384	362
RPMI 5 mM glucose + 10% dialyzed FBS	260	445	347

O=c1cc(O)c(Cl)c[nH]1
AUC of viability dose-response curve
Settings	NOMO1 [1]	P12-Ichikawa	SEM cells [2]
HPLM + 10% dialyzed FBS	378	391	455
RPMI 5 mM glucose + 10% FBS	396	395	416
RPMI 5 mM glucose + 10% dialyzed FBS	394	417	453
